The values below are quoted from earlier work in PMC8538057, “Direct Delivery of ANA-TA9, a Peptide Capable of Aβ Hydrolysis, to the Brain by Intranasal Administration” (Pharmaceutics, 2021).

The subject of data set [1] is Aβ42. As to conditions: also three Aβ fragment peptides, particularly Aβ11–29; cited from earlier work. From the text:
Recently, we reported the proteolytic activity of the shorter synthetic peptides JAL-TA9 (YKGSGFRMI) and ANA-TA9 (SKGQAYRMI), derived from the Box A region of the Tob1 and ANA/BTG3 proteins. These peptides cleave Aβ42 and three Aβ fragment peptides, particularly Aβ11–29 originating from the central region, which is considered the core region of Aβ42 aggregation/oligomerization. We gave these peptides the general name Catalytide. Catalytides such as JAL-TA9 and ANA-TA9 are attractive candidate peptide drugs for a novel strategy for preventing and treating AD.

Data set [2] relates to normal and cognitively impaired rats. As to conditions: i.n. administration; cited from earlier work. From the text:
(§1) Nasal drug administration has several advantages over oral or i.v. administration, which include noninvasiveness, self-administration, short onset of action, and higher bioavailability due to the avoidance of hepatic first-pass metabolism. Therefore, interest has grown in i.n. drug administration as a route for the application of drugs, particularly peptides, for systemic delivery. In addition to the above advantages, active pharmaceutical ingredients applied to the nasal cavity can undergo not only systemic absorption but, also, direct delivery to the brain [33, 34, 35, 36]. The brain up ...

Data set [3] has as its system aged mice. As to conditions: i.n. administration; cited from earlier work.
Description: as §1

Turning to “YKGSGFRMI [JAL-TA9, Catalytide (catalytic peptide) … derived from the Box A region of Tob1 protein, cleaves Aβ42]”, the “cleavage of Aβ42 (proteolytic activity)” value in data set [1] is “cleave Aβ42”.

As to NAPVSIPQ, the “effect on memory function” value in data set [2] is reported as “improves memory function”. The effect on anxiety entry in data set [3] is “decreases anxiety”.
